This passage reports EC50 results from patent US10919903B2, “Nitrogen-containing heterocyclic compounds as FXR modulators” (Hepagene Therapeutics (HK) Limited, priority 2016, dated 2021).

For the experiment, the target named is T1, FXR (Homo sapiens, UniProt Q96RI1).
T1 construct: expressed in transfected cells; host or cells: HEK293T
T1 sequence (Q96RI1 1-486): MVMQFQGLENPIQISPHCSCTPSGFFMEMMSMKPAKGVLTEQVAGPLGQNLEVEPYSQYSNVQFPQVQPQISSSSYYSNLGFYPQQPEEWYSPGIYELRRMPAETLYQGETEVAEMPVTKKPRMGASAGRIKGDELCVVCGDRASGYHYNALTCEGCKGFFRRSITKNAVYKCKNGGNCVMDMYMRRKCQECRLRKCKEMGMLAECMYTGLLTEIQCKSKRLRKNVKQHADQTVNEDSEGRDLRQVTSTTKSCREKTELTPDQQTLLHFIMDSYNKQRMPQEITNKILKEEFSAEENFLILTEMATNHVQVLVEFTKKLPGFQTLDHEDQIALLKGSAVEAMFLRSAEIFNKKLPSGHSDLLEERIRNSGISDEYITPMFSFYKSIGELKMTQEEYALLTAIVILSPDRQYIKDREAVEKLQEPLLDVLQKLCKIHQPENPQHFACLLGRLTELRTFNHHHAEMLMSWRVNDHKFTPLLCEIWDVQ
Nature of the experiment: FXR Transactivation Assay (GAL4 luciferase reporter, pBIND-FXR in HEK293T). The note with it: HEK293T cells. In kind it is cell-based. The protocol: FXR Transactivation Assay
pGL4.35 [luc2P/9XGAL4 UAS/Hygro]
Steady-Glo™ Luciferase Assay System
GW4064 as a positive control
• 1. Hek293T cells were plated at 1.1*10^6/ml into a 100 mm dish. • 2. […] Cells were incubated at 37° C. under 5% CO2 atmosphere. • 3. All of compounds were 3-fold serial diluted from 10 mM stock for 10 doses in DMSO. • 4. Transfer compound dilutions into 384 well assay plates using liquid workstation. • 5. Seed 25 ul HEK293T cells into 384 well assay plate (prepared step 4) at 0.6*10^5/ml. Cells were incubated at 37° C. under 5% CO2 atmosphere overnight. • 6. Add 25 ul steady-Glo™ Luciferase Assay Reagent into each well of 384-well assay plate. • 7. […] Calculate EC50 by fitting % Activity values and log of compound concentrations to nonlinear regression (dose response−variable slope) with Graphpad 5.0. FXR Coactivator Assay Reagents: LanthaScreen™ TR-FRET Farnesoid X Receptor Coactivator Assay GW4064 as a positive control Process: • 1. All of compounds were 3-fold serial diluted from 10 mM stock for 10 doses in DMSO. • 2. Dilute each 100× agonist serial dilution to 2× using Complete Coregulator buffer G. • 3. Transfer 10 μl of each of the 2× agonist serial dilutions to 384 well assay plates. • 4. Add 5 μl of 4×FXR-LBD to 384 well assay plates. • 5. […] Incubate at room temperature protected from light. • 7. […] Calculate EC50 by fitting % Activity values and log of compound concentrations to nonlinear regression (dose response−variable slope) with Graphpad 5.0.
A general note: A reporter such as luciferase makes a cellular process visible.

Take `COc1cc(C(=O)O)cc2sc(N3CCN(Cc4c(C(C)C)cnn4-c4c(Cl)cccc4Cl)CC3C)nc12` (stereo not drawn) [II-14]: the EC50 (usually the concentration giving half of the maximal effect) lay within 401 to 5000 nM.
`COc1cc(C(=O)O)cc2sc(N3CCC(Cc4c(-c5c(Cl)cncc5Cl)noc4C4CC4)CC3)nc12` [II-49] displayed an EC50 of 401 to 5000 nM.
As for `COc1cc(-c2nnn[nH]2)cc2sc(N3CCN(Cc4c(-c5c(Cl)cccc5Cl)noc4C(C)C)CC3)nc12` [IX-02, 3-(2,6-Dichlorophenyl)-5-isopropyl-4-((4-(4-methoxy-6-(1H-tetrazol-5-yl)benzo[d]thiazol-2-yl)piperazin-1-yl)methyl)isoxazole], the EC50 lay within 401 to 5000 nM.
Then `C[C@@H]1CN(Cc2c(-c3c(Cl)cccc3Cl)noc2C2CC2)CCN1c1nc2c(OC(F)(F)F)cc(C(=O)O)cc2s1` [VII-04, 2-[(2R)-4-[[5-Cyclopropyl-3-(2,6-dichlorophenyl)-1,2-oxazol-4-yl]methyl]-2-methylpiperazin-1-yl]-4-(trifluoromethoxy)-1,3-benzothiazole-6-carboxylic acid], with 10 to 100 nM.
The compound `Cc1cc(C(=O)O)cc2sc(N3CCC(Cc4c(C(C)C)cnn4-c4c(Cl)cccc4Cl)CC3)nc12` [IV-10] came in with an EC50 of 101 to 400 nM.
In turn, `COc1cc(C(=O)O)cc2sc(N3CCN(Cc4c(-c5c(Cl)cccc5Cl)noc4C(C)C)CC34CC4)nc12` [II-17] displayed an EC50 of 401 to 5000 nM.
In the case of `COc1cc(C(N)=O)cc2nc(N3CCN(Cc4c(-c5c(Cl)cccc5Cl)noc4C4CC4)C[C@@H]3C)sc12` [VIII-04, (S)-2-(4-((5-Cyclopropyl-3-(2,6-dichlorophenyl)isoxazol-4-yl)methyl)-2-methylpiperazin-1-yl)-7-methoxybenzo[d]thiazole-5-carboxamide], the concentration giving a half-maximal response (EC50) was 401 to 5000 nM.
Then `COc1cc(C(=O)O)cc2sc(N3CCN(Cc4c(-c5c(Cl)cccc5Cl)noc4C(C)C)CC3CO)nc12` (stereo not drawn) [II-07, 2-(4-[[3-(2,6-Dichlorophenyl)-5-(propan-2-yl)-1,2-oxazol-4-yl]methyl]-2-(hydroxymethyl)piperazin-1-yl)-4-methoxy-1,3-benzothiazole-6-carboxylic acid], with 401 to 5000 nM.
In the case of `COc1cc(C(=O)O)cc2sc(N3C4CCC3CN(Cc3c(-c5c(Cl)cccc5Cl)noc3C3CC3)C4)nc12` [II-36], the EC50 lay in the range of 10 to 100 nM.
In turn, `COc1cc(C(=O)O)cc2sc(N3CCC(Cc4c(-c5c(Cl)cccc5Cl)noc4C(C)C)C[C@H]3C)nc12` (stereo partly drawn) [II-45, 2-((2R)-4-((3-(2,6-Dichlorophenyl)-5-isopropylisoxazol-4-yl)methyl)-2-methylpiperidin-1-yl)-4-methoxybenzo[d]thiazole-6-carboxylic acid] gave an EC50 of 10 to 100 nM.
Next, `COc1cc(C(=O)O)cc2sc(N3CCN(Cc4c(C(C)C)cnn4-c4c(Cl)cccc4Cl)CC3C)nc12` (stereo not drawn) [II-15]: 10 to 100 nM; “2-(4-[[3-(2,6-Dichlorophenyl)-5-(propan-2-yl)-1,2-oxazol-4-yl]methyl]piperazin-1-yl)-1-benzofuran-5-carboxylic acid [Compound X-01]”: 401 to 5000 nM; `COc1cc(C(=O)O)cc2sc(N3CCN(Cc4c(-c5c(Cl)cccc5Cl)noc4C(C)C)C4CCCCC43)nc12` (racemic) [II-39]: 101 to 400 nM.
Then `COc1cc(C(=O)O)cc2sc(N3CCC(Cc4c(-c5ccccc5OC(F)(F)F)noc4C4CC4)CC3)nc12` [II-50], with 10 to 100 nM; and `COc1cc(C(=O)O)cc2sc(N3CCC(Cc4c(C(C)C)cnn4-c4c(Cl)cccc4Cl)CC3)nc12` [II-44], with 401 to 5000 nM.
Turning to `COc1cc(C(=O)O)cc2sc(N3CCN(Cc4c(-c5c(Cl)cccc5Cl)noc4C4CC4)C(C)C3)nc12` (stereo not drawn) [II-25], the EC50 was in the range of 101 to 400 nM.
On to `CCC1CN(c2nc3c(OC)cc(C(=O)O)cc3s2)CCN1Cc1c(-c2c(Cl)cccc2Cl)noc1C1CC1` (stereo not drawn) [II-21], for which the EC50 was 101 to 400 nM.
In the case of `COc1cc(C(N)=O)cc2sc(N3CCN(Cc4c(-c5c(Cl)cncc5Cl)noc4C4CC4)C[C@H]3C)nc12` [VIII-03, 2-[(2R)-4-[[5-Cyclopropyl-3-(3,5-dichloropyridin-4-yl)-1,2-oxazol-4-yl]methyl]-2-methylpiperazin-1-yl]-4-methoxy-1,3-benzothiazole-6-carboxamide], the EC50 lay within 101 to 400 nM.
